Measurements as given in patent US8729048B2, “Methods and materials for assessing responsiveness to PARP inhibitors and platinating agents” (Mayo Foundation for Medical Education and Research, priority 2011, dated 2014).

Test system: BRCA2-deficient PEO1 cells
Assay: Clonogenic assay, PEO1
Assay type: cell-based
Procedure: FIG. 5. NHEJ is a major contributor to PARP inhibitor effects in BRCA2-deficient cells. (A) Western blots showing knockdown of Ku80 in PEO1 and PEO4 cells. (B) Clonogenic survival of PEO1 and PEO4 cells from (A), which were treated with the indicated ABT-888 concentration for 72 hours, washed, and allowed to form colonies. (C) Western blots following treatment with siRNA targeting luciferase (control), Ku80, PARP1, or both Ku80 and PARP1. (D) Clonogenic viability of PEO 1 and PEO4 cells from (C). Following knockdown, cells were plated onto triplicate plates and allowed to form colonies. (E) Clonogenic survival of PEO1 cells following Artemis knockdown. After treatment with the indicated siRNA, plates were treated with indicated concentration of ABT-888 for 72 hours, washed, and allowed to form colonies. Inset, Western blots showing knockdown using luciferase (control) or Artemis siRNAs in PEO1 cells. (F) Clonogenic survival of PEO1 and PEO4 cells treated for 72 hours with ABT-888 in combination with diluent or 500 nM DNA-PKi. All results are reported as means of triplicate plates±SEM, and are representative of 3 independent experiments.
FIG. 13. DNA-PK inhibition diminishes the lethality of multiple PARP inhibitors in PEO1 cells. (A) Representative clonogenic plates after PEO1 cells were treated with ABT-888 (0, 5, or 20 μM) with or without 500 nM DNA-PKi. (B, C) Bar graphs comparing clonogenic survival of PEO1 cells exposed to two PARP inhibitors with or without 500 nM DNA-PKi. The PARP inhibitors used for these assays are ABT-888 (B) and AZD2281/olaparib (C). Results are reported as mean±SEM of triplicate plates.
FIG. 18. Artemis knockdown confers resistance to PARP inhibition and cisplatin in BRCA2-deficient/mutant cells. Clonogenic survival assays of PEO1 shRNA lines continuously exposed to ABT-888 (A) or cisplatin (B), or exposed to ionizing radiation (C). (D-F) Clonogenic survival assays of CAPAN1 shRNA lines exposed to ABT-888 (D), cisplatin (E), or exposed to ionizing radiation (F).
Colony formation assays were performed on siRNA-transfected PEO1 and PEO4 cells 48 hours after the second transfection. Cells were trypsinized and plated at 750 cells/plate in triplicate 60-mm dishes containing medium A, allowed to grow 10-14 days, and stained with Coomassie Brilliant Blue. Colonies containing ≧50 cells were scored manually. To assess methyl methanesulfonate (MMS) sensitivity, PEO1 or PEO4 cells were incubated for 48 hours after the second siRNA treatment, plated onto 60-mm dishes, allowed to adhere for 4 hours, exposed to the indicated concentration of MMS (Sigma-Aldrich) for 1 hour, washed with sterile RPMI 1640, and allowed to grow into colonies in medium A. For drug treatment, cells (without siRNA) were allowed to adhere for 4-6 hours, then treated with the indicated concentrations of ABT-888 and/or AZ12594248 for 72 hours. Following drug treatment, cells were washed with drug-free RPMI 1640, cultured for 10-14 days in medium A, and stained. For HCC1937 and HCC1937/BRCA1 cells, a similar procedure was used with several changes: 1000 cells were plated in medium B, and treatment was continuous for 16-20 days. M059J and M059J+DNA-PKcs were plated at 1000 cells per plate in medium C and treated for 48 hours. GM16666 and 16667 were plated at 1000 cells per plate in medium D and treated for 48 hours.

## C[C@]1(c2nc3c(C(N)=O)cccc3[nH]2)CCCN1 [ABT-888]
PEO1 cells, 72 hours
  clonogenic survival: decreased the clonogenic survival
PEO1 cells, Artemis siRNA, 72 hours
  clonogenic survival with ABT-888 after siRNA depletion of Artemis: reversed the lethality
PEO1 cells, Ku80 siRNA, 72 hours
  clonogenic survival with ABT-888 after Ku80 knockdown: markedly enhanced the survival
PEO1 shRNA lines, continuous exposure
  clonogenic sensitivity after stable Artemis knockdown: conferred resistance

## CCN1CCN(CC(=O)Nc2ccc(-c3cccc4c(=O)cc(N5CCOCC5)oc34)c3sc4ccccc4c23)CC1 [AZ 12594248]
PEO1 cells, 500 nM DNA-PKi
  effect of co-administration on AZD2281 clonogenic lethality: diminished the effects
PEO1 cells, 500 nM DNA-PKi, 72 hours
  effect of co-administration on ABT-888 clonogenic lethality: diminished the effects
